Measured values from US8084398B2, “Benzoylpyrazoles and herbicide” (Bayer Cropscience AG, priority 2006, dated 2011).

Columns and labels:
Setaria viridis [1] = test: Herbicidal efficacy against field weeds, pre-emergence soil spray treatment (Test Example 1); type: in vivo; conditions: 500 g ai/ha, 2 weeks after treatment, 100% = complete death, 0% = no efficacy
Experimental: (§1) Test for herbicidal efficacy against field weeds (Pre-emergence soil spray treatment) Preparation of formulation of the active compound
(§2) Carrier: DMF 5 parts by weight
(§3) Emulsifier: Benzyloxy polyglycol ether 1 part by weight
(§4) A suitable formulation of an active compound is obtained as an emulsifiable concentrate by mixing 1 part by weight of the active compound with the stated amounts of the carrier and emulsifier. A prescribed amount of the formulation is diluted with water.
(§5) In a green house, the seeds of field weeds (Amaranthus lividus and Setaria viridis) were inoculated by one species per pot on the surface layer in 16 cm^2 pots filled with field soil (sand loam) and covered with soil. Immediately after the inoculation, the prescribed and diluted solutions of the formulations of respective active compounds prepared according to the above preparation method, were sprayed to the soil. After 2 weeks from the treatment, the herbicidal efficacy of respective active compounds was examined. The evaluation of the herbicidal efficacy was carried out by rating complete death as 100% and as 0% in case of no herbicidal efficacy. In case of showing herbicidal efficacy of 80% or more, such active compounds are evaluated to be practical as herbicides. As typical examples, the study results with Compound Nos. 19 and 96 and those with Comparative compound C-1 are shown in Table 2 below.

Amaranthus lividus = test: as above; type: in vivo; conditions: 500 g ai/ha, 2 weeks after treatment, 100% = complete death, 0% = no efficacy
Experimental: as §1, §2, §3, §4, §5

Setaria viridis [2] = test: Herbicidal efficacy against field weeds, after-emergence stalk and leaf spray treatment (Test Example 2); type: in vivo; conditions: 2- to 3-leaf stage, 500 g ai/ha, 2 weeks after treatment, 100% = complete death
Experimental: as §4, §5
Test for herbicidal efficacy against field weeds (After-emerge stalk and leave spray treatment) […]

melting point [°C]	SMILES	herbicidal efficacy, Setaria viridis (Setaria viridis [1]) [%]	herbicidal efficacy, Amaranthus lividus (Amaranthus lividus) [%]	herbicidal efficacy, Setaria viridis (Setaria viridis [2]) [%]
63 to 68	Cc1nn(C)c(O)c1C(=O)c1ccc(Cl)c(OCCn2cnnn2)c1Cl	–	–	–
–	CS(=O)(=O)c1ccc(C(=O)C2C(=O)CCCC2=O)c(Cl)c1 [C-1]	30	70	40
